# In patent US20260226073A1 (AURIGENE ONCOLOGY LIMITED, priority 2023, published 2026):
# Target: T1, human recombinant CBL-b (human Biotin CBL-b recombinant protein a.a. 39-426) (Homo sapiens, UniProt Q13191)
# T1 construct: human Biotin CBL-b recombinant protein a.a; 39-426; Biotin (biotinylated); made in house
# Assay: Biochemical assay for CBL-b inhibition (ligand displacement TR-FRET)
# Format: binding
# Conditions: 50 nM CBL-b, 0.3 μM Bodipy FL-Probe, read-out: IC50 (CBL-b inhibition, group)
# Procedure: The inhibitory activity of the test compounds was assessed by Ligand displacement TR-FRET assay. The human recombinant CBL-b (human Biotin CBL-b recombinant protein a.a. 39-426; synthesised in-house) was diluted in enzyme assay buffer (20 mM HEPES, 150 mM NaCl, 0.01% Triton X, 0.01% BSA, 0.5 mM TCEP) in a 10 μl volume and plated in 384-well plates (Cat #781075, Greiner) to a final concentration of 50 nM. The enzyme/compound mixture was incubated at RT for 60 min. The Bodipy FL-Probe described in WO 2020/210508 (synthesized in-house) diluted in enzyme assay buffer was added to the plate and incubated for 60 min RT, the final probe concentration was 0.3 μM. After 60 min incubation, 10 μl of detection mix (Terbium Streptavidin, (Cat #PV3576, Invitrogen) diluted in 1× Lance buffer) was added and incubated for 60 min at room temperature. Time-resolved fluorescence (excitation, 320 nm; emission donor, 615 nm; emission acceptor, 665 nm) was monitored by using 2030 multilabel reader Victor5 (PerkinElmer). The IC50 (concentration for half maximal inhibition) and % maximum inhibition of the compounds were estimated by fitting the dose response data to a sigmoidal curve fitting equation using Graph pad Prism software V. 8.
# T1 sequence (Q13191 39-426): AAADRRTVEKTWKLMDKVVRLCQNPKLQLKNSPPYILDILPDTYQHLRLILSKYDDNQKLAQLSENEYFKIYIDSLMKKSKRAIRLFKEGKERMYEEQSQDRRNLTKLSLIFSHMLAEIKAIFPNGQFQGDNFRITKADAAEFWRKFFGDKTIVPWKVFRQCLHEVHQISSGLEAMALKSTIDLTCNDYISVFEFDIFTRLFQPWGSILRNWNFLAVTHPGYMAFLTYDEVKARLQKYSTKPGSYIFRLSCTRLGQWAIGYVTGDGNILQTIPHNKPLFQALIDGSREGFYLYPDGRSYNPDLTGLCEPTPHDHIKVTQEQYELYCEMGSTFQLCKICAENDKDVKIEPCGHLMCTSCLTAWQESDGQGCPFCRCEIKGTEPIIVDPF
row,IC50 [nM],Compound
1,300 to 5000,"CCN(CC)Cc1cc(Cl)nc(N2Cc3ccc(C4(Cc5nncn5C)COC4)cc3C2=O)c1 [Compound 79, 2-(6-Chloro-4-((diethylamino)methyl)pyridin-2-yl)-6-(3-((4-methyl-4H-1,2,4-triazol-3-yl)methyl)oxetan-3-yl)isoindolin-1-one]"
2,300 to 5000,"C[C@@H]1CN(Cc2cc(N3Cc4ccc(C5(Cc6nncn6C)COC5)cc4C3=O)nc(C(F)(F)F)c2)CCN1C [Compound 97, (R)-2-(4-((3,4-Dimethylpiperazin-1-yl)methyl)-6-(trifluoromethyl)pyridin-2-yl)-6-(3-((4-methyl-4H-1,2,4-triazol-3-yl)methyl)oxetan-3-yl)isoindolin-1-one]"
3,300 to 5000,"C[C@@H]1CN(Cc2cc(N3Cc4ccc(C5(Cc6nncn6C)COC5)cc4C3=O)nc(C(F)(F)F)c2)C[C@H](C)N1 [Compound 98, 2-(4-(((3R,5S)-3,5-Dimethylpiperazin-1-yl)methyl)-6-(trifluoro-methyl)pyridin-2-yl)-6-(3-((4-methyl-4H-1,2,4-triazol-3-yl)methyl)oxetan-3-yl)-isoindolin-1-one]"
4,300 to 5000,"C[C@H]1CCCN(Cc2cc(Cl)nc(N3Cc4ccc(-c5c(-c6nncn6C)cnn5C)cc4C3=O)c2)C1 [Compound 114, (S)-2-(6-Chloro-4-((3-methylpiperidin-1-yl)methyl)pyridin-2-yl)-6-(1-methyl-4-(4-methyl-4H-1,2,4-triazol-3-yl)-1H-pyrazol-5-yl)isoindolin-1-one]"
5,< 80,"C[C@H]1CCCN(Cc2cc(Cl)nc(N3Cc4ccc(-c5ccccc5-c5nncn5C)cc4C3=O)c2)C1 [Compound 118, (S)-2-(6-Chloro-4-((3-methylpiperidin-1-yl)methyl)pyridin-2-yl)-6-(2-(4-methyl-4H-1,2,4-triazol-3-yl)phenyl)isoindolin-1-one]"
6,300 to 5000,"Cc1cc(CO)cc(N2Cc3ccc(-c4ccc(F)cc4-c4nncn4C)cc3C2=O)n1 [Compound 136, 6-(4-Fluoro-2-(4-methyl-4H-1,2,4-triazol-3-yl)phenyl)-2-(4-(hydroxymethyl)-6-methylpyridin-2-yl)isoindolin-1-one]"
7,80 to 300,"COC1(CNCc2cc(C)nc(N3Cc4ccc(-c5ccc(F)cc5-c5nncn5C)cc4C3=O)c2)CC1 [Compound 137, 6-(4-Fluoro-2-(4-methyl-4H-1,2,4-triazol-3-yl)phenyl)-2-(4-((((1-methoxycyclopropyl)methyl)amino)methyl)-6-methylpyridin-2-yl)isoindolin-1-one]"
8,300 to 5000,C[C@H]1CCCN(Cc2cc(N3Cc4ccc(C5(Cc6nncn6C)COC5)cc4C3=O)nc(C(F)(F)F)c2)[C@H]1C [Compound 138]
9,80 to 300,Cn1cnnc1CC1(c2ccc3c(c2)C(=O)N(c2cc(CNCC4CCCCC4)cc(Cl)n2)C3)COC1 [Compound 153]
10,80 to 300,Cn1cnnc1CC1(c2ccc3c(c2)C(=O)N(c2cc(CN4CCCC(O)CC4)cc(Cl)n2)C3)COC1 (stereo not shown) [Compound 174]
11,300 to 5000,C[C@@H]1CN(Cc2cc(Cl)nc(N3Cc4ccc(C5(Cc6nncn6C)COC5)cc4C3=O)c2)C[C@@H](C)O1 [Compound 177]
12,80 to 300,Cn1cnnc1CC1(c2ccc3c(c2)C(=O)N(c2cc(CNCC4COC4)cc(Cl)n2)C3)COC1 [Compound 183]

# More lines, now with the values behind:
row,Compound,IC50 [nM]
1,"CCN1CCc2c(cc(N3Cc4ccc(C5(Cc6nncn6C)COC5)cc4C3=O)cc2C(F)(F)F)C1 [Compound 77, 2-(2-Ethyl-5-(trifluoromethyl)-1,2,3,4-tetrahydroisoquinolin-7-yl)-6-(3-((4-methyl-4H-1,2,4-triazol-3-yl)methyl)oxetan-3-yl)isoindolin-1-one]",300 to 5000
2,"CN1CC2CC1CN2Cc1cc(N2Cc3ccc(C4(Cc5nncn5C)COC4)cc3C2=O)nc(C(F)(F)F)c1 (stereo not shown) [Compound 81, 2-(4-((5-Methyl-2,5-diazabicyclo[2.2.1]heptan-2-yl)methyl)-6-(trifluoromethyl)-pyridin-2-yl)-6-(3-((4-methyl-4H-1,2,4-triazol-3-yl)methyl)oxetan-3-yl)isoindolin-1-one]",300 to 5000
3,"C[C@@H]1CN(Cc2cc(N3Cc4ccc(C5(Cc6nncn6C)COC5)cc4C3=O)nc(C(F)(F)F)c2)CCN1 [Compound 96, (R)-6-(3-((4-Methyl-4H-1,2,4-triazol-3-yl)methyl)oxetan-3-yl)-2-(4-((3-methylpiperazin-1-yl)methyl)-6-(trifluoromethyl)pyridin-2-yl)isoindolin-1-one]",300 to 5000
4,"Cn1cnnc1CC1(c2ccc3c(c2)C(=O)N(c2cc(CNCCOCCOCCOCCN)cc(Cl)n2)C3)COC1 [Compound 99, 2-(4-(13-Amino-5,8,11-trioxa-2-azatridecyl)-6-chloropyridin-2-yl)-6-(3-((4-methyl-4H-1,2,4-triazol-3-yl)methyl)oxetan-3-yl)isoindolin-1-one]",300 to 5000
5,"CC(C)NCC(O)c1cc(N2Cc3ccc(C4(Cc5nncn5C)COC4)cc3C2=O)cc(C(F)(F)F)c1 (stereo not shown) [Compound 100, 2-(3-(1-Hydroxy-2-(isopropylamino)ethyl)-5-(trifluoromethyl)-phenyl)-6-(3-((4-methyl-4H-1,2,4-triazol-3-yl)methyl)oxetan-3-yl)isoindolin-1-one]",300 to 5000
6,"Cn1cc2c(n1)CCCN2Cc1cc(N2Cc3ccc(C4(Cc5nncn5C)COC4)cc3C2=O)nc(C(F)(F)F)c1 [Compound 128, 2-(4-((2-Methyl-2,5,6,7-tetrahydro-4H-pyrazolo[4,3-b]pyridin-4-yl)methyl)-6-(trifluoromethyl)pyridin-2-yl)-6-(3-((4-methyl-4H-1,2,4-triazol-3-yl)methyl)oxetan-3-yl)isoindolin-1-one]",300 to 5000
7,"Cc1nc(CNCc2cc(Cl)nc(N3Cc4ccc(C5(Cc6nncn6C)COC5)cc4C3=O)c2)cs1 [Compound 129, 2-(6-Chloro-4-((((2-methylthiazol-4-yl)methyl)amino)methyl)-pyridin-2-yl)-6-(3-((4-methyl-4H-1,2,4-triazol-3-yl)methyl)oxetan-3-yl)isoindolin-1-one]",80 to 300
8,"Cn1cnnc1CC1(c2ccc3c(c2)C(=O)N(c2cc(CNCC4(F)CC4)cc(Cl)n2)C3)COC1 [Compound 130, 2-(6-Chloro-4-((((1-fluorocyclopropyl)methyl)amino)methyl)-pyridin-2-yl)-6-(3-((4-methyl-4H-1,2,4-triazol-3-yl)methyl)oxetan-3-yl)isoindolin-1-one]",80 to 300
9,C[C@H]1CCCN(Cc2ccnc(N3Cc4ccc(C5(Cc6nncn6C)COC5)cc4C3=O)c2)C1 [Compound 149],80 to 300
10,CC(Cc1nncn1C)c1cnc2c(c1)C(=O)N(c1cc(CN3CCC[C@H](C)C3)cc(Cl)n1)C2 (stereo partly shown) [Compound 150],80 to 300
11,C[C@H]1CCCN(Cc2cc(Cl)nc(N3Cc4ccc(CCc5nncn5C)cc4C3=O)c2)C1 [Compound 154],80 to 300
12,CC(C)C(Cc1nncn1C)c1ccc2c(c1)C(=O)N(c1cc(CN3CCC[C@H](C)C3)cc(Cl)n1)C2 (stereo partly shown) [Compound 165],300 to 5000
13,C[C@H]1CCCN(Cc2cc(Cl)nc(N3Cc4ccc(C(Cc5nncn5C)C5CCC5)cc4C3=O)c2)C1 (stereo partly shown) [Compound 173],300 to 5000
14,Cn1cnnc1CC1(c2ccc3c(c2)C(=O)N(c2cc(CN4CCC(C)(F)C4)cc(Cl)n2)C3)COC1 (stereo not shown) [Compound 184],80 to 300
15,Cc1nc(CNCC2CC2)cc(N2Cc3ccc(C4(Cc5nncn5C)COC4)cc3C2=O)n1 [Compound 186],80 to 300
16,C[C@@H]1CN(Cc2cc(Cl)nc(N3Cc4ccc(C5(Cc6nncn6C)COC5)cc4C3=O)c2)C[C@H](C)O1 [Compound 191],300 to 5000
